Laboratory results: patent publication US20240318141A1, “MATURATION AGENT” (Orizuru Therapeutics, Inc., priority 2021, published 2024)
Values joined by “and” are separate entries in the source; they are usually repeats but may differ in a detail not shown here. Equal values may be shown once.

Experiments:
[1] = tested on: insulin-producing cell population (QHJI-114s04 iPS cell line); assay: Marker protein expression by flow cytometry of insulin-producing cell population prepared by addition of docetaxel (Example 3); assay type: cell-based, human
Excerpt: The differentiation of a QHJI-114s04 iPS cell line into insulin-producing cells was induced by the three-dimensional culture method using a bioreactor and a multiwell plate according to steps 1) to 6) described above and the previous report (Nature Biotechnology 2014; 32: 1121-1133). Specifically, the iPS cells were subjected to the first culture in a medium (DMEM/1% B-27 (INS+)/Penicillin Streptomycin/dimethyl sulfoxide) containing differentiation-inducing factors (GSK3β inhibitor, ROCK inhibitor and low dose of activin A) under conditions causing action of insulin, and subsequently subjected to the second culture in a medium (DMEM/1% B-27 (INS−)/Penicillin Streptomycin/dimethyl sulfoxide) containing a differentiation-inducing factor (low dose of activin A) under conditions causing no action of insulin to obtain definitive endoderm cells. Further, a pancreatic endocrine progenitor cell population obtained by the induction of differentiation from the definitive endoderm cells was cultured in a medium (MCDB131/20 mM Glucose/NaHCO3/FAF-BSA/ITS-X/Glutamax/Penicillin Streptomycin) containing differentiation-inducing factors (ALK5 inhibitor II, T3, LDN, γ-secretase inhibitor RO, […]) to obtain an insulin-producing cell population. The exchange from the bioreactor to the multiwell plate was carried out in step 6).
Marker protein expression (NKX6.1, C-peptide (insulin), CHGA, and Ki67) in each insulin-producing cell population after the completion of culture was measured by flow cytometry. Respective samples were collected by sampling from separate culture containers. The number of cells was measured in an automatic cell counter at the time of sample preparation for flow cytometry, and the total number of cells per well of the multiwell plate was calculated.

[2] = tested on: immunodeficient NOD/SCID mouse with streptozotocin-induced insulin-deficient diabetes mellitus; assay: In vivo transplantation of insulin-producing cell population prepared by addition of docetaxel: plasma human C-peptide and graft weight (Example 5)
Experimental: An immunodeficient NOD/SCID mouse was prepared by inducing insulin-deficient diabetes mellitus with streptozotocin. […] After transplantation, a human C-peptide concentration in plasma was measured over time. The graft was excised 6 months after transplantation, and its weight was measured.

[3] = tested on: non-endocrine cells in graft (Outgrowth, Cyst); assay: Evaluation of non-endocrine cells in graft and protein expression by HE and immunohistological staining (Example 5); assay type: in vivo, mouse; settings: graft 6 months after transplantation
Experimental: The excised graft was fixed and dehydrated, and a paraffin section was then prepared and subjected to HE staining and immunohistological staining for the expression of the proteins of interest (insulin, glucagon, Ki67, human nucleus, PDX1, and CK19). The presence or absence of non-endocrine cells was confirmed on the basis of the morphology and staining image thereof. The number and frequency of non-endocrine cells appearing in the graft were counted as total numbers from four tests conducted with cells derived from a plurality of batches treated in the same manner.
Outgrowth shown in Table 9 refers to a population of human nucleus-positive, PDX1-negative, and Ki67-positive non-endocrine cells, and its presence was determined from morphology by HE staining as well as by immunohistological staining. Cyst shown in Table 9 refers to human nucleus-positive, PDX1-positive, and CK19-positive non-endocrine duct cells, and its presence was determined from a duct form by HE staining as well as by immunohistological staining.

[4] = tested on: non-endocrine cells in insulin-producing cell population (QHJI-I14s04 iPS cell line); assay: Cisplatin or docetaxel treatment in step 6), then extended culture in basal medium containing EGF (Example 2); assay type: cell-based, human
Excerpt: The differentiation of a QHJI-I14s04 iPS cell line into an insulin-producing cell population was induced by the three-dimensional culture method using a bioreactor according to steps 1) to 6) described above and the previous report (Nature Biotechnology 2014; 32: 1121-1133). Specifically, the iPS cells were subjected to the first culture in a medium (DMEM/1% B-27 (INS+)/Penicillin Streptomycin/dimethyl sulfoxide) containing differentiation-inducing factors (GSK3β inhibitor, ROCK inhibitor and low dose of activin A) under conditions causing action of insulin, and subsequently subjected to the second culture in a medium (DMEM/1% B-27 (INS−)/Penicillin Streptomycin/dimethyl sulfoxide) containing a differentiation-inducing factor (low dose of activin A) under conditions causing no action of insulin to obtain a definitive endoderm cell population. Further, a pancreatic endocrine progenitor cell population obtained by the induction of differentiation from the definitive endoderm cell population was cultured in a medium (Improved MEM/1% B-27 (INS+)/Penicillin Streptomycin) containing differentiation-inducing factors (ALK5 inhibitor II, T3, LDN, Y-secretase inhibitor RO, and ascorbic acid) and FGF receptor 1 inhibitor (PD-166866) to obtain an insulin-producing cell population.
An insulin-producing cell population obtained without the addition of cisplatin and docetaxel was used as a control cell population and subjected to extended culture in the same manner as above.
Marker protein expression (PDX1, CHGA, and Ki67) in each insulin-producing cell population before the start of and after the completion of extended culture was measured by flow cytometry. Samples after the completion of extended culture were collected by sampling three times from the same culture container. The number of cells was measured in an automatic cell counter at the time of sample preparation for flow cytometry, and the total number of cells per mL of the bioreactor was calculated. The number of CHGA-positive cells, the number of PDX1-positive and CHGA-negative cells, and the number of PDX1-negative and CHGA-negative cells were calculated from the obtained total number of cells and the flow cytometry results.

[5] = after extended culture 4 weeks, EGF present, average of three samplings
[6] = after extended culture 4 weeks, EGF present, single samplings
[7] = after extended culture involving EGF, with respect to control cell population
[8] = s6d11 (before extended culture); 3 μM cisplatin or 1 μM docetaxel for 7 days from day 4 of step 6)

For `CC(=O)O[C@@]12CO[C@@H]1C[C@H](O)[C@@]1(C)C(=O)[C@H](O)C3=C(C)[C@@H](OC(=O)[C@H](O)[C@@H](NC(=O)OC(C)(C)C)c4ccccc4)C[C@@](O)([C@@H](OC(=O)c4ccccc4)[C@H]21)C3(C)C` [Docetaxel, (−)-(1S,2S,3R,4S,5R,7S,8S,10R,13S)-4-Acetoxy-2-benzoyloxy-5,20-epoxy-1,7,10-trihydroxy-9-oxotax-11-en-13-yl (2R,3S)-3-tert-butoxycarbonylamido-2-hydroxy-3-phenylpropionate], the “increase of proportion of INS-positive and NKX6.1-positive cells” value ([1]; 1 μM docetaxel, 7 days from day 4 of step 6), with respect to control cell population) was “about 10%”, the “Total number of cells” value ([1]; docetaxel treatment 1, 3 or 10 μM) was “not changed” and the “abundance of CHGA-negative and Ki67-positive (CHGA−/Ki67+) cells” value ([1]; medium with PD-166866, irrespective of presence or absence of docetaxel treatment, without extended culture) was ≤ 0.1%. The “action on proportion of INS-positive and NKX6.1-positive cells at higher concentration” value ([1]; up to the docetaxel concentration of 10 μM) was “not changed”, the graft weight ([2]; graft excised at 6 months after transplantation) was “low tendency” and the “persistence of human C-peptide secretion after transplantation” value ([2]; subcutaneous transplantation, follow-up) was “continuously confirmed up to 6 months after transplantation”. The “human C-peptide secretion in plasma” value ([2]; subcutaneously transplanted cell population prepared by addition of docetaxel vs prepared without docetaxel) was “at the same level”, the “Ki67-positive cells in graft (immunohistological staining)” value [3] was “slightly scattered” and the “insulin-positive and glucagon-positive cells in graft (immunohistological staining)” value [3] was “many insulin-positive and glucagon-positive cells were confirmed throughout the whole graft”. The “Frequency of appearance (%), Cyst” value ([3]; total of 4 tests, 21 animals) was 10%, the “Frequency of appearance (%), Outgrowth” value ([3]; total of 4 tests, 21 animals) was 0% and the “The number of appearance, Cyst” value ([3]; total of 4 tests, 21 animals) was 2. For the same compound, the “The number of appearance, Outgrowth” value ([3]; total of 4 tests, 21 animals) was 0, the “population exhibiting marked increase by extended culture (table footnote)” value ([4]; 1 μM docetaxel, extended culture with EGF) was “No population exhibited marked increase by extended culture” and the “The number of cells CHGA+, average” value [4, 5] was 22 ×10^4 cells/mL. For the same compound, the “The number of cells PDX+/CHGA−, average” value [4, 5] was 1.7 ×10^4 cells/mL, the “The number of cells PDX−/CHGA−, average” value [4, 5] was 2.8 ×10^4 cells/mL and the “Total number of cells, average” value [4, 5] was 27 ×10^4 cells/mL. The “The number of cells CHGA+” value [4, 6] was 21 ×10^4 cells/mL and 22 ×10^4 cells/mL and 24 ×10^4 cells/mL, the “The number of cells PDX+/CHGA−” value [4, 6] was 2.0 ×10^4 cells/mL and 1.5 ×10^4 cells/mL and the “The number of cells PDX−/CHGA−” value [4, 6] was 3.1 ×10^4 cells/mL and 2.7 ×10^4 cells/mL. For the same compound, the “Total number of cells” value [4, 6] was 26 ×10^4 cells/mL and 28 ×10^4 cells/mL, the “proportion of PDX1-negative and CHGA-negative (PDX1−/CHGA−) cells” value [4, 7] was “drastically decreased” and the “proportion of PDX1-positive and CHGA-negative (PDX1+/CHGA−) cells” value [4, 7] was “drastically decreased”. For the same compound, the “total number of cells after extended culture (in words)” value ([4]; extended culture involving EGF) was “decreased”, the “The number of cells CHGA+” value [4, 8] was 73 ×10^4 cells/mL and the “The number of cells PDX+/CHGA−” value [4, 8] was 1.3 ×10^4 cells/mL. The “The number of cells PDX−/CHGA−” value [4, 8] was 0.1 ×10^4 cells/mL, the “Total number of cells” value [4, 8] was 74 ×10^4 cells/mL and the “number of CHGA-positive endocrine cells after extended culture (in words)” value ([4]; with respect to control cell population) was “not changed”.
